{"source": "patent US10098902B2", "about": "“Arginase inhibitors as therapeutics” (Mars, Incorporated, priority 2010, dated 2018)", "key": {"[1]": {"system": "animals undergoing experimental autoimmune encephalomyelitis (EAE)", "settings": "mouse, in vivo; cited from earlier work"}, "human arginase I (ARG I)": {"biological_target": "human arginase I (ARG I) (Homo sapiens (Human), UniProt P05089)", "sequence (P05089 whole entry)": "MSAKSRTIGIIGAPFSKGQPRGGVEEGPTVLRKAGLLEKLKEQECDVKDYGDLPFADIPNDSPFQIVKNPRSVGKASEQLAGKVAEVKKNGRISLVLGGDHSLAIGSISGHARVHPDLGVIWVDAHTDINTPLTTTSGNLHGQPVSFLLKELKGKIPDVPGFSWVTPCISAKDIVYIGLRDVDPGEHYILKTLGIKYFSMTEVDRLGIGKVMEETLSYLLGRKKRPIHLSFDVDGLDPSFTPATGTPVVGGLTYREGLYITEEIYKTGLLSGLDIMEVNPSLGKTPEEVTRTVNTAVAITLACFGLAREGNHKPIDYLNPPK", "assay": "Inhibition of arginase I, spectrophotometric urea assay at 530 nm", "format": "biochemical", "settings": "potency rank 1-5; pH 7.4, 37° C., 60 minutes", "description": "(§1) Inhibition of arginase I (ARG I) and arginase II (ARG II) by Formula I or Formula II compounds is followed spectrophotometrically at 530 nm. The compound to be tested was dissolved in DMSO at an initial concentration 50-fold greater than its final concentration in the cuvette. 10 μl of the stock solution was diluted in 90 μl of the assay buffer that comprises 0.1M sodium phosphate buffer containing 130 mM NaCl, pH 7.4, to which is added ovalbumin (OVA) at a concentration of 1 mg/ml. Solutions of arginase I and II were prepared in 100 mM sodium phosphate buffer, pH 7.4 containing 1 mg/ml of OVA to give an arginase stock solution at a final concentration of 100 ng/ml.\n(§2) To each well of a 96-well microtiter plate was added 40 μl of enzyme, 10 μl of an inventive compound and 10 μl of enzyme substrate (L-arginine+manganese sulfate). For wells that were used as positive controls, only the enzyme and its substrate were added, while wells used as negative controls contained only manganese sulfate.\n(§3) After incubating the microtiter plate at 37° C. for 60 minutes, 150 μl of a urea reagent obtained by combining equal proportions (1:1) of reagents A and B is added to each well of the microtiter plate to stop the reaction. The urea reagent is made just before use by combining Reagent A (10 mM o-phthaldialdehyde, and 0.4% polyoxyethylene (23) lauryl ether (w/v) in 1.8 M sulfuric acid) with Reagent B (1.3 mM primaquine diphosphate, 0.4% polyoxyethylene (23) lauryl ether (w/v), 130 mM boric acid in 3.6 mM sulfuric acid). After quenching the reaction mixture, the microtiter plate is allowed to stand for an additional 10 minutes at room temperature to allow the color to develop. The inhibition of arginase was computed by measuring the optical density (OD) of the reaction mixture at 530 nm and normalizing the OD value to percent inhibition observed in the control. The normalized OD is then used to generate a dose-response curve by plotting the normalized OD values against log [concentration] and using regression analysis to compute the IC50 values."}, "[2]": {"biological_target": "human arginase II (ARG II) (Homo sapiens (Human), UniProt P78540)", "sequence (P78540 23-354)": "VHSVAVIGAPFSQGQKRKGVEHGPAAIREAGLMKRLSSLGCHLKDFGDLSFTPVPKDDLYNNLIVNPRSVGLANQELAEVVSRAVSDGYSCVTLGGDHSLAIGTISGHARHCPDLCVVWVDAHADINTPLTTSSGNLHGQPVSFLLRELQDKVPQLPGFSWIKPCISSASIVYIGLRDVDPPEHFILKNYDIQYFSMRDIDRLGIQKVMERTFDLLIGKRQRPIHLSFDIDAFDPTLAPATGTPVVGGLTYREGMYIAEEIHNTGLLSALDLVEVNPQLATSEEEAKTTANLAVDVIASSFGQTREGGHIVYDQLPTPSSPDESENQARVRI", "assay": "Inhibition of arginase II, spectrophotometric urea assay at 530 nm", "format": "biochemical", "settings": "potency rank 1-5; pH 7.4, 37° C., 60 minutes", "description": "as §1, §2, §3"}, "bacterial arginase": {"system": "bacterial arginase", "settings": "cited from earlier work"}, "[3]": {"system": "central airways in the murine chronic model", "settings": "murine chronic asthma model; cited from earlier work"}, "[4]": {"system": "spontaneously hypertensive animals", "settings": "cited from earlier work"}}}
{"smiles": "NC(CCCCB(O)O)C(=O)O", "note": "(stereo not drawn) [ABH, amino-6-boronohexanoic acid]", "values": [{"measurement": "severity of EAE versus control animals", "setting": "[1]", "result": "much milder form of EAE"}]}
{"smiles": "N[C@@]1(C(=O)O)CN(C(=O)CNCc2ccccc2)C[C@@H]1CCCB(O)O", "note": "[Example 60, (3R,4S)-3-amino-1-(2-(benzylamino)acetyl)-4-(3-boronopropyl)pyrrolidine-3-carboxylic acid]", "values": [{"measurement": "IC50", "setting": "human arginase I (ARG I)", "result": "251 to 1000", "unit": "nM"}, {"measurement": "IC50", "setting": "[2]", "result": "1000 to 2000", "unit": "nM"}]}
{"smiles": "N[C@H]1C[C@H](CCCB(O)O)[C@](N)(C(=O)O)C1", "note": "[Example 61, (1S,2S,4S)-1,4-diamino-2-(3-boronopropyl)cyclopentanecarboxylic acid]", "values": [{"measurement": "IC50", "setting": "human arginase I (ARG I)", "result": "251 to 1000", "unit": "nM"}, {"measurement": "IC50", "setting": "[2]", "result": "251 to 1000", "unit": "nM"}]}
{"smiles": "NC(=NCCC[C@H](N)C(=O)O)NO", "note": "[NOHA]", "values": [{"measurement": "CD3 expression on T-cells", "setting": "bacterial arginase", "result": "reestablished CD3 expression on T-cells"}, {"measurement": "production of NO by macrophages", "setting": "bacterial arginase", "result": "enhanced production of NO by macrophages"}]}
{"smiles": "N[C@@H](CSCCB(O)O)C(=O)O", "note": "[S-(2-boronoethyl)-L-cysteine]", "values": [{"measurement": "methacholine induced responsiveness of the central airways", "setting": "[3]", "result": "attenuated"}]}
{"smiles": "N=C(NO)NCC[C@H](N)C(=O)O", "note": "[nor-NOHA, N^ω-hydroxy-nor-L-arginine]", "values": [{"measurement": "effect on blood pressure", "setting": "[4]", "result": "lowered blood pressure"}]}
